According to patent publication US11680060B2, “Bicycloheptane pyrrolidine orexin receptor agonists” (Merck Sharp & Dohme LLC, priority 2020, dated 2023):
Read-outs that look alike come from different tables or passages of the source.

Target: human OX2R (Homo sapiens (Human), UniProt O43614)
Assay: IPOne (IP-1) assay in CHO cells expressing human OX2R
Format: cell-based
Conditions: for Emax: CHO; for IC50: CHO cells expressing human OX2R, IP-One detection, 2 hours incubation, EC50 = inflection point of four parameter logistic fit, read-out: hOX2R_IP_IC50
Method in brief: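 CHO cells stably expressing human OX2R were stimulated with compound (10-point ½-log dilutions) for 2 h at 37 °C. IP-1 accumulation was read by HTRF (IP-One, 665/620 nm). EC50 from a four-parameter fit; % effect relative to 1 μM reference agonist control.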

[1] = percentage of mean max effect of a reference compound at 1 uM (100% activity by comparison to Orexin A), human OX2R, read-out: Emax (%)
[2] = percentage of mean max effect of a reference compound at 1 uM (100% activity by comparison to Orexin A), human OX2R

human OX2R, sequence (O43614 whole entry): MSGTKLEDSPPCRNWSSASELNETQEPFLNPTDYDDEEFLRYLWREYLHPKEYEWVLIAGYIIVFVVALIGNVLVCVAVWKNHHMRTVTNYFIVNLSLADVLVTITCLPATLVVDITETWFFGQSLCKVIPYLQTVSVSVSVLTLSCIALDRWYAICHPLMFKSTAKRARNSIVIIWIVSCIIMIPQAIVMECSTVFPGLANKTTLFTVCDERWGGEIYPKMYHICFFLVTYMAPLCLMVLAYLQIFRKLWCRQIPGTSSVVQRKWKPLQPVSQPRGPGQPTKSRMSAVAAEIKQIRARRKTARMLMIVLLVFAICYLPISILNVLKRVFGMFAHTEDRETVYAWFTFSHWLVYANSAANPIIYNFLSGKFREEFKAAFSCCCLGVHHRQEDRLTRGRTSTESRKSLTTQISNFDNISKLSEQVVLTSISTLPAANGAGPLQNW

| IC50 [nM] | Emax [1] [%] | Emax (%) [2] [%] | SMILES | Emax [%] |
| --- | --- | --- | --- | --- |
| 2 | 102 | – | COC(=O)N1[C@H](C)C[C@H](NS(=O)(=O)CF)[C@@H]1CO[C@H]1CC[C@@]2(c3ncc(Br)cn3)C[C@H]2C1 (single isomer, unassigned) [Example 87] | – |
| – | 100 | – | CC(C)OC(=O)N1[C@H](C(F)F)C[C@H](NS(C)(=O)=O)[C@@H]1CO[C@H]1CC[C@@]2(c3ncc(F)cn3)C[C@H]2C1 [Example 119, isopropyl (2R,3S,5S)-5-(difluoromethyl)-2-((((1S,3S,6R)-6-(5-fluoropyrimidin-2-yl)bicyclo[4.1.0]heptan-3-yl)oxy)methyl)-3-(methylsulfonamido)pyrrolidine-1-carboxylate] | – |
| – | 91.7 | – | COC(=O)N1[C@H](C)C[C@H](NS(C)(=O)=O)[C@@H]1COC1CCC2(c3ncc(Cl)c(C(F)(F)F)n3)CC2C1 (stereo partly drawn) [Example 72, methyl (2R,3S,5R)-2-(((6-(5-chloro-4-(trifluoromethyl)pyrimidin-2-yl)bicyclo[4.1.0]heptan-3-yl)oxy)methyl)-5-methyl-3-(methylsulfonamido)pyrrolidine-1-carboxylate] | – |
| 2.1 | – | 100.0 | COC(=O)N1[C@H](C)C[C@H](NS(=O)(=O)N(C)C)[C@@H]1COC1CCC2(c3ncccn3)CC2C1 (single isomer, unassigned) [Example 187] | – |
| 1.7 | 101 | – | COC(=O)N1[C@H](C(F)F)C[C@H](NS(C)(=O)=O)[C@@H]1CO[C@H]1CC[C@@]2(c3ncc(F)cn3)C[C@H]2C1 (single isomer, unassigned) [Example 127] | – |
| 3.4 | 101 | – | COC(=O)N1[C@H](C)C[C@H](NS(=O)(=O)C(F)F)[C@@H]1COC1CCC2(c3ncccn3)CC2C1 (mixture of isomers) [Example 67, methyl (2R,3S,5R)-3-((difluoromethyl)sulfonamido)-5-methyl-2-(((6-(pyrimidin-2-yl)bicyclo[4.1.0]heptan-3-yl)oxy)methyl)pyrrolidine-1-carboxylate] | – |
| – | 99.2 | – | COC(=O)N1[C@H](C)C[C@H](NS(=O)(=O)CF)[C@@H]1CO[C@H]1CC[C@@]2(c3ncc(F)cn3)C[C@H]2C1 [Example 30, methyl (2R,3S,5R)-3-((fluoromethyl)sulfonamido)-2-((((1S,3S,6R)-6-(5-fluoropyrimidin-2-yl)bicyclo[4.1.0]heptan-3-yl)oxy)methyl)-5-methylpyrrolidine-1-carboxylate] | – |
| – | 98.4 | – | CCS(=O)(=O)N[C@H]1C[C@@H](C)N(C(=O)OC)[C@H]1CO[C@@H]1CC[C@]2(c3ncc(F)cn3)C[C@@H]2C1 [Example 47, methyl (2R,3S,5R)-3-(ethylsulfonamido)-2-((((1R,3R,6S)-6-(5-fluoropyrimidin-2-yl)bicyclo[4.1.0]heptan-3-yl)oxy)methyl)-5-methylpyrrolidine-1-carboxylate] | – |
| 2.6 | 101 | – | COC(=O)N1[C@H](C(F)(F)F)C[C@H](NS(C)(=O)=O)[C@@H]1CO[C@H]1CC[C@@]2(c3ncc(F)cn3)C[C@H]2C1 (single isomer, unassigned) [Example 133] | – |
| – | – | 100.9 | COC(=O)N1[C@H](C)C[C@H](NS(C)(=O)=O)[C@@H]1CO[C@H]1CC[C@@]2(c3ncccn3)C[C@H]2C1 (single isomer, unassigned) [Example 19] | – |
| 11.4 | 101 | – | CC(C)OC(=O)N1[C@H](C)C[C@H](NS(C)(=O)=O)[C@@H]1COC1CCC2(c3ncc(F)cn3)CC2C1 (mixture of isomers) [Example 26, isopropyl (2R,3S,5R)-2-(((6-(5-fluoropyrimidin-2-yl)bicyclo[4.1.0]heptan-3-yl)oxy)methyl)-5-methyl-3-(methylsulfonamido)pyrrolidine-1-carboxylate] | – |

| SMILES | IC50 [nM] | Emax [1] [%] | Emax (%) [2] [%] | Emax [%] |
| --- | --- | --- | --- | --- |
| COC(=O)N1[C@H](C)C[C@H](NS(C)(=O)=O)[C@@H]1COC1CCC2(c3ncc(Cl)c(OC)n3)CC2C1 (stereo partly drawn) [Example 70, methyl (2R,3S,5R)-2-(((6-(5-chloro-4-methoxypyrimidin-2-yl)bicyclo[4.1.0]heptan-3-yl)oxy)methyl)-5-methyl-3-(methylsulfonamido)pyrrolidine-1-carboxylate] | 33.5 | – | – | 101 |
